From patent US20090105283A1, “3-HYDROQUINAZOLIN-4-ONE DERIVATIVES FOR USE AS STEAROYL CoA DESATURASE INHIBITORS” (priority 2007, published 2009)

The compounds below were run against T1, stearoyl-CoA desaturase (SCD) (Rattus norvegicus, UniProt P07308) (assay: SCD assay with rat liver microsomes ([3H]stearoyl CoA, adapted from Talamo and Bloch)). Conditions: Table 2 (Example 21, procedures of Example 20); rat liver microsomes, [3H]stearoyl CoA substrate.
T1 construct: The microsomes were quickly thawed and added to assay buffer so that a concentration of 0.4 mg/ml was achieved; from tissue
T1 sequence (P07308 1-358): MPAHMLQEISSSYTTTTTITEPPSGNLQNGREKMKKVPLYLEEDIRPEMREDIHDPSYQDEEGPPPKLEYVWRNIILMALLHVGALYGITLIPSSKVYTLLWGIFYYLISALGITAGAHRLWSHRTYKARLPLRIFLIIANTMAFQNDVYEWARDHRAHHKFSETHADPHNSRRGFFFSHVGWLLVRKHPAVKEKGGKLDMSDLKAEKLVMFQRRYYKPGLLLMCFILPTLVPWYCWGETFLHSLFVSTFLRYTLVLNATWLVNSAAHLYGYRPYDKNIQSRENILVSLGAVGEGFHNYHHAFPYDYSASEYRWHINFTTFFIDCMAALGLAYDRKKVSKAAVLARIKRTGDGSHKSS
Type: biochemical
How it was run: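 Liver microsomes came from diet-induced male Sprague Dawley rats and were used at 0.2 mg/ml final. Assay buffer was Tris pH 7.2 with NADH, ATP, CoA, MgCl2 and 0.1% BSA. Compounds were preincubated 30 min, then reacted 45 min at room temperature with [3H]stearoyl-CoA; after TCA stop and Bio-Bead cleanup, supernatant radioactivity was counted by scintillation.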
`CC(=O)OCC(=O)Nc1ccc2ncn(CCCOc3ccccc3F)c(=O)c2c1` [compound 47, 2-(3-(3-(2-fluorophenoxy)propyl)-4-oxo-3,4-dihydroquinazolin-6-ylamino)-2-oxoethyl acetate] showed an IC50 of 9800 nM.
Work on `O=C(CO)Nc1ccc2c(=O)n(CCCOc3ccccc3F)cnc2c1` [compound 48, N-(3-(3-(2-fluorophenoxy)propyl)-4-oxo-3,4-dihydroquinazolin-7-yl)-2-hydroxyacetamide] yielded an IC50 of 11000 nM.
`N#Cc1ccccc1OCCCn1cnc2ccc(NC(=O)OCc3ccccc3)cc2c1=O` [compound 49, benzyl 3-(3-(2-cyanophenoxy)propyl)-4-oxo-3,4-dihydroquinazolin-6-ylcarbamate] showed an IC50 of 480 nM.
With `O=C(Nc1ccc2c(=O)n(CCCOc3cc(Cl)ccc3Cl)cnc2c1)OCc1ccccc1` [compound 50, benzyl 3-(3-(2,5-dichlorophenoxy)propyl)-4-oxo-3,4-dihydroquinazolin-7-ylcarbamate] the IC50 was 450 nM.
`O=C(CO)Nc1ccc2c(=O)n(CCCOc3cc(Cl)ccc3Cl)cnc2c1` [compound 51, N-(3-(3-(2,5-dichlorophenoxy)propyl)-4-oxo-3,4-dihydroquinazolin-7-yl)-2-hydroxyacetamide] gave an IC50 of 86 nM.
`Cc1ccccc1OCCCn1cnc2ccc(NC(=O)OCc3ccccc3)cc2c1=O` [compound 52, benzyl 4-oxo-3-(3-(o-tolyloxy)propyl)-3,4-dihydroquinazolin-6-ylcarbamate] gave an IC50 of 44 nM.
Compound `Cc1ccccc1OCCCn1cnc2ccc(NC(=O)CO)cc2c1=O` [compound 53, 2-hydroxy-N-(4-oxo-3-(3-(o-tolyloxy)propyl)-3,4-dihydroquinazolin-6-yl)acetamide] has an IC50 of 100 nM.
`O=C(Nc1ccc2ncn(CCCCOc3cc(Cl)ccc3Cl)c(=O)c2c1)OCc1ccccc1` [compound 54, benzyl 3-(4-(2,5-dichlorophenoxy)butyl)-4-oxo-3,4-dihydroquinazolin-6-ylcarbamate] showed an IC50 of 150 nM.
For `O=C(CO)Nc1ccc2ncn(CCCCOc3cc(Cl)ccc3Cl)c(=O)c2c1` [compound 55, N-(3-(4-(2,5-dichlorophenoxy)butyl)-4-oxo-3,4-dihydroquinazolin-6-yl)-2-hydroxyacetamide], the IC50 was 240 nM.
`O=C(CO)Nc1ccc2ncn(CCCc3ccccc3Cl)c(=O)c2c1` [compound 56, N-(3-(3-(2-chlorophenyl)propyl)-4-oxo-3,4-dihydroquinazolin-6-yl)-2-hydroxyacetamide] was tested, and the IC50 was 430 nM.
`O=C(Nc1ccc2ncn(CCOc3ccccc3Cl)c(=O)c2c1)OCc1ccccc1` [compound 57, benzyl 3-(2-(2-chlorophenoxy)ethyl)-4-oxo-3,4-dihydroquinazolin-6-ylcarbamate] showed an IC50 of 180 nM.
In the case of `O=C(CO)Nc1ccc2ncn(CCOc3ccccc3Cl)c(=O)c2c1` [compound 58, N-(3-(2-(2-chlorophenoxy)ethyl)-4-oxo-3,4-dihydroquinazolin-6-yl)-2-hydroxyacetamide], the IC50 is reported as 340 nM.
`O=C(Nc1ccc2ncn(CCCOc3ccccc3Cl)c(=O)c2c1)OCc1ccccc1` [compound 59, benzyl 3-(3-(2-chlorophenoxy)propyl)-4-oxo-3,4-dihydroquinazolin-6-ylcarbamate] showed an IC50 of 45 nM.
`O=C(CO)Nc1ccc2ncn(CCCOc3ccccc3Cl)c(=O)c2c1` [compound 60, N-(3-(3-(2-chlorophenoxy)propyl)-4-oxo-3,4-dihydroquinazolin-6-yl)-2-hydroxyacetamide] gave an IC50 of 450 nM.
Work on `O=C(CO)Nc1ccc2ncn(Cc3cccc(COc4cc(Cl)ccc4Cl)c3)c(=O)c2c1` [compound 61, N-(3-(3-((2,5-dichlorophenoxy)methyl)benzyl)-4-oxo-3,4-dihydroquinazolin-6-yl)-2-hydroxyacetamide] yielded an IC50 of 490 nM.
`O=C(Nc1ccc2ncn(Cc3cccc(COc4cc(Cl)ccc4Cl)c3)c(=O)c2c1)OCc1ccccc1` [compound 62, benzyl 3-(3-((2,5-dichlorophenoxy)methyl)benzyl)-4-oxo-3,4-dihydroquinazolin-6-ylcarbamate] was tested, and the IC50 was 620 nM.
